In ChEMBL document CHEMBL1128978, “1-Hydroxy-1,4-dihydroquinoxaline-2,3-diones: Novel antagonists at NMDA receptor glycine sites” (Bioorg Med Chem Lett, 1996) one finds IC50 data, which are given here for 16 molecules.

A short description of this experiment: Electrophysiological assays in Xenopus oocytes expressing cloned NMDA receptor (NR1A/2C). It is filed as cell-based. The note with it: Rattus norvegicus, Oocyte.
`O=c1[nH]c2cc(Cl)c(Cl)cc2n(O)c1=O`: the half-maximal inhibitory concentration (IC50) (as a rule, the concentration that gives 50% inhibition) was 80 nM.

For `Oc1nc2cc(C(F)(F)F)cc(Br)c2nc1O`, the 50% inhibitory concentration (IC50) was 2500 nM.

On to `O=c1[nH]c2c(Br)cc(C(F)(F)F)cc2n(O)c1=O`, for which the half-maximal inhibitory concentration (IC50) was found to be 54000 nM.

`Nc1c(Cl)c(Cl)cc2nc(O)c(O)nc12` displayed a half-maximal inhibitory concentration (IC50) of 93 nM.

As for `O=c1[nH]c2c(Br)c(Cl)c(Cl)cc2n(O)c1=O`, the half-inhibitory concentration (IC50) worked out at 2700 nM.

In the case of `Nc1c(Cl)c(Cl)cc2c1[nH]c(=O)c(=O)n2O`, inhibition was half-maximal at 1800 nM (IC50).

With `O=c1[nH]c2c(Cl)cc(Cl)cc2n(O)c1=O`, inhibition was half-maximal at 19000 nM (IC50). Against the preceding molecule, the IC50 is about 11-fold higher.

For the molecule `Oc1nc2cc(C(F)(F)F)cc(Cl)c2nc1O`, 2100 nM corresponded to half-maximal inhibition (IC50). This IC50 lies about 9-fold lower than the previous one.

Regarding `Oc1nc2cc(Cl)cc(Cl)c2nc1O`, the concentration for half-maximal inhibition (IC50) amounted to 280 nM.

As for `Oc1nc2cc(Br)cc(Br)c2nc1O`, it took 1300 nM to reach half-maximal inhibition (IC50). Against the preceding molecule, the IC50 is about 4.6-fold higher.

With `Oc1nc2cc(Cl)c(Cl)c(Br)c2nc1O`, the midpoint of inhibition, the IC50, lay at 210 nM.

`O=c1[nH]c2c(Cl)cc(C(F)(F)F)cc2n(O)c1=O` registered a concentration for half-maximal inhibition (IC50) of 25000 nM.

In the case of `O=c1[nH]c2c(Cl)c(Cl)c(Cl)cc2n(O)c1=O`, the IC50 was found to be 2500 nM.

Molecule `O=c1[nH]c2c(Br)cc(Br)cc2n(O)c1=O` returned an IC50 of 20000 nM.

Take `Oc1nc2cc(Cl)c(Cl)c(Cl)c2nc1O`: inhibition was half-maximal at 30 nM (IC50).

Take `Oc1nc2cc(Cl)c(Cl)cc2nc1O` [2,3-DIHYDROXY-6,7-DICHLOROQUINOXALINE]: the half-inhibitory concentration (IC50) was 130 nM. This IC50 is about 4.3-fold higher than that of the molecule before.
